Test system: ulcerative colitis (UC) rats
Format: in vivo
Conditions: sulfasalazine 100 mg/kg P.O., loaded ZnONPs 100 mg/kg P.O. containing 12.2 mg sulfasalazine/kg
Description: Forty male albino rats were randomly divided into four groups (n=10 rats), with all groups were treated for 7 days, as follows:
Group 1: Rats received saline daily for 21 consecutive days by rectal catheter and served as the normal control group (negative control).
Group 2: The disease group received 1 ml acetic acid 3% for three days and served as the ulcerative colitis (UC) control group (positive control).
Group 3: In the standard group, rats received free sulfasalazine (100 mg/kg; P.O. i.e., about 20 mg/rat 200 g) after induction of UC by acetic acid 3% as in group 2.
Group 4: The treatment group, where UC rats received the dose of ZnONPs loaded sulfasalazine (100 mg/kg; P.O. of the ZnONPs) containing 12.2 mg sulfasalazine/kg; P.O.
Markers estimated: • Macroscopic examination of colonic mucosa. • Inflammatory mediators such as tumor necrosis factor-α (TNF-α), interleukin 1beta (IL 1B), malondialdehyde (MBA), reduced glutathione (GSH), superoxide dismutase (SOD), caspase-1, and cyclooxygenase-2 (COX2). • Inflammatory mediators are estimated by ELIZA.

SMILES: O=C(O)c1cc(/N=N/c2ccc(S(=O)(=O)Nc3ccccn3)cc2)ccc1O [sulfasalazine]
- overall effect on ulcerative colitis (inflammatory mediators, healing) relative to other treatments: lower than that observed for Group 4

Reference: patent US11730759B1, “Sulfasalazine-loaded zinc oxide nanoparticles for the treatment of ulcerative colitis” (priority 2023, dated 2023)
